Laboratory results taken from US5648359A, “Tumor necrosis factor production inhibitors” (Sumitomo Pharmaceuticals Company, Limited, priority 1993, dated 1997).

Tests used:
[1] = tested on: TNF production in mouse peritoneal macrophages; assay: Inhibitory effect on TNF production in mouse peritoneal macrophages (50 μM and 100 μM); assay type: cell-based, mouse (BALB/c); conditions: Peritoneal macrophage, read-out: Inhibition of TNF Production or secretion; for inhibition at 100 µM: 100 μM compound; for inhibition at 50 µM: 50 μM compound
Description: (§1) BALB/c mice (5 weeks old, female, Charles River Japan) were intraperitoneally injected with 1 ml of 3% thioglycollate broth. After 4 days, the mice were sacrificed. Peritoneal exudated cells (PECs) were collected from the peritoneal cavity by washing with minimum essential medium (hereinafter abbreviated as MEM, manufactured by Handai Biseibutubyo Kenkyukai, Osaka, Japan) containing 5 U/ml heparin and 1% fetal bovine serum (FBS, manufactured by GIBCO Laboratories Inc.). PECs were washed three times with MEM, suspended with MEM containing 10% FBS. After the viable cells were counted by exclusion of trypan blue dye, the suspension was adjusted at the final concentration of 2×10^6 cells/ml with MEM containing 10% FBS and seeded into a 96-well microplate (Costar, Cambridge, Mass., USA) at 2×10^5 cells/100 μl/well. The PECs were incubated for an hour at 37° C. in a humidified 5% CO2 incubator, and were washed twice with MEM warmed at 37° C. to remove non-adherent cells. Residual adherent cells were used as peritoneal macrophages. After the washing above, 50 μl each/well of MEM containing 10% FBS was added to each well and provided for use in the following experiment.
The powdery compound of the present invention was dissolved in dimethylsulfoxide in a concentration of 30 mM. […] In the peritoneal macrophages obtained above, 50 μl each of the dilution was added to each well to make the total volume 100 μl. Thereafter 100 μl each of lipopolysaccharide (hereinafter abbreviated as LPS, E. coli 0111B4, manufactured by DIFCO, USA) was added to each well in the final concentration of 10 μg/ml. After the cells were incubated at 37° C. for 18 hours in a humidified 5% CO2 incubator, 25 μl of the supernatant in each well was collected.
(§2) The TNF activity in the supernatant collected was determined by bioassay using TNF-sensitive mouse fibroblast cell line L929 cells. That is, 100 μl each of MEM containing 10% FBS was added to each well of a 96-well microplate; using the resulting mixture, 25 μl of the collected supernatant was diluted to 5-fold dilution to final concentrations (concentrations after the following addition of L929 cell suspension) of 10%, 2%, 0.4% and 0.08%.
L929 cells were then suspended (4×10^5 cells/ml) in MEM containing 10% FBS and 1 μg/ml actinomycin D (Sigma Co.) and 100 μl each of the suspension was added to each well of the above microplate at 4×10^4 cells/well and cultured at 37° C. in a humidified 50% CO2. The viable cells were counted by partial modification of the MTT method reported in Monosann et al., T., J. Immunol. Method, 65, 55-63, 1983. The modified MTT method comprises the following steps. One mg/ml of 3-(4,5-dimethylthiazol-2-yl)-2,5-diphenyltetrazolium bromide (hereinafter abbreviated as MTT, manufactured by Sigma Co.) was dissolved in MEM, and 50 μl each of the solution was added to each well of the microplate above. […] After shaking the 96-well microplate for a few minutes, the absorbance in each well was measured with a microplate reader (Corona Co.) at an absorption wavelength of 550 nm. The absorbance correlated to the count of the viable L929 cells and represented the TNF activity in the supernatant. The TNF activity was determined in terms of unit (U)/ml from the calibration curve of absorbance for the TNF activity obtained using mouse recombinant TNF α (TNF-M, manufactured by Genzyme Co.) as a standard. The activity of inhibiting TNF production of each compound, was determined by the following equation. […]

[2] = tested on: TNF production or secretion in mouse peritoneal macrophages; assay: Inhibitory effect on TNF production or secretion in mouse peritoneal macrophages (30 μM); assay type: cell-based, mouse (BALB/c); conditions: 30 μM compound, LPS 10 μg/ml, 18 hours, TNF by L929 bioassay; for inhibition at 30 µM: Mus musculus
Description: Inhibitory effect on TNF production or secretion in mouse peritoneal macrophages (In case drug concentration is 30 μM)
as §1
The powdery compound of the present invention was dissolved in dimethylsulfoxide in a concentration of 30 mM. The solution was then diluted with MEM containing 10% FBS in the final concentration of 30 μM. In the peritoneal macrophages obtained above, 50 μl each of the dilution was added to each well to make the total volume 100 μl. Thereafter 100 μl each of lipopolysaccharide (hereinafter abbreviated as LPS, E. coli 0111B4, manufactured by DIFCO, USA) was added to each well in the final concentration of 10 μg/ml. After the cells were incubated at 37° C. for 18 hours in a humidified 5% CO2 incubator, 25 μl of the supernatant in each well was collected.
as §2
L929 cells were then suspended (4×10^5 cells/ml) in MEM containing 10% FBS and 1 μg/ml actinomycin D (Sigma Co.) and 100 μl each of the suspension was added to each well of the above microplate at 4×10^4 cells/well and cultured at 37° C. in a humidified 50% CO2. The viable cells were counted by partial modification of the MTT method reported in Monosann et al., T., J. Immunol. Method, 65, 55-63, 1983. The modified MTT method comprises the following steps. One mg/ml of 3-(4,5-dimethylthiazol-2-yl)-2,5-diphenyltetrazolium bromide (hereinafter abbreviated as MTT, manufactured by Sigma Co.) was dissolved in MEM, and 50 μl each of the solution was added to each well of the microplate above. After incubating the microplate for further 6 hours, the supernatant was discarded and 100 μl of 0.004N HCl-isopropyl alcohol and then 10 μl of 0.01% sodium laurylsulfate aqueous solution was added to each well. After shaking the 96-well microplate for a few minutes, the absorbance in each well was measured with a microplate reader (Corona Co.) at an absorption wavelength of 550 nm. The absorbance correlated to the count of the viable L929 cells and represented the TNF activity in the supernatant. The TNF activity was determined in terms of unit (U)/ml from the calibration curve of absorbance for the TNF activity obtained using mouse recombinant TNF α (TNF-M, manufactured by Genzyme Co.) as a standard. The activity of inhibiting TNF production of each compound, was determined by the following equation.
Inhibition of TNF production or secretion (%)=(1-TNF activity in the […]

[3] = tested on: TNF; conditions: cited from earlier work
[4] = tested on: cancer patients; conditions: human, in vivo; cited from earlier work
[5] = tested on: HIV-1; conditions: cited from earlier work
[6] = tested on: experimental allergic encephalomyelitis induced on an animal model; conditions: cited from earlier work
[7] = tested on: endotoxin-shocked mice; conditions: mouse, in vivo; cited from earlier work

Compound | inhibition at 100 µM [1] | inhibition at 30 µM [2] | Inhibition of TNF Production or Secretion [2] | further results
CCCCCC(=O)N1C2Cc3cc4c(cc3C1Cc1cc3c(cc12)OCO3)OCO4 [Example 19] | 51% | 16% |  | 
CCCN1C2Cc3cc4c(cc3C1Cc1cc3c(cc12)OCO3)OCO4 [Example 29] | 81% | 31% |  | 
CCCCN1C2Cc3cc4c(cc3C1Cc1cc3c(cc12)OCO3)OCO4 [Example 30] | 78% | -37% |  | inhibition at 50 µM [1]: 41%
NCCCN1C2Cc3cc4c(cc3C1Cc1cc3c(cc12)OCO3)OCO4 [Example 49, 15-(3-aminopropyl)-5,6,12,13-tetrahydrocycloocta[1,2-f:5,6-f']bis[1,S]benzodioxol-5,12-imine] |  | -4% |  | inhibition at 50 µM [1]: 21%
NCCCC(=O)N1C2Cc3cc4c(cc3C1Cc1cc3c(cc12)OCO3)OCO4 [Example 54, 15-(4-aminobutyryl)-5,6,12,13-tetrahydrocycloocta[1,2-f:5,6-f']bis[1,3]benzodioxol-5,12-imine] |  | 35% |  | 
CC(=O)CCCCn1c(=O)c2c(ncn2C)n(C)c1=O [Pentoxifylline] |  |  |  | TNF inhibitory activity [3]: showing an activity of inhibiting TNF; sense of well-being / weight loss in cancer patients [4]: activity of improving the sense of well-being or preventing a weight loss in cancer patients; prevention of HIV-1 replication [5]: activity of preventing HIV-1 replication; prevention of experimental allergic encephalomyelitis [6]: activity of preventing experimental allergic encephalomyelitis induced on an animal model; prevention of death in endotoxin-shocked mice [7]: activity of preventing death in endotoxin-shocked mice
isomeric mixture of 16-acetyl-2-aminomethyl-6,7,13,14-tetrahydro-[1,3]benzodioxolo[5,6-f]cycloocta[1,2-g]-1,4-benzodioxan-6,13-imine and 16-acetyl-3-aminomethyl-6,7,13,14-tetrahydro-[1,3]benzodioxolo[5,6-f]cycloocta[1,2-g]-1,4-benzodioxan-6,13-imine [Example 9] |  |  | 69% | 
mixture of 16-acetyl-6,7,13,14-tetrahydro-2-hydroxymethyl[1,3]benzodioxolo[5,6-f]cycloocta[1,2-g]-1,4-benzodioxan-6,13-imine and 16-acetyl-6,7,13,14-tetrahydro-3-hydroxymethyl[1,3]benzodioxolo[5,6-f]cycloocta[1,2-g]-1,4-benzodioxan-6,13-imine [Example 8] |  |  | 86% | 
mixture of 17-acetyl-2-ethoxycarbonyl-6,7,14,15-tetrahydrocycloocta-[1,2-g:5,6-g']bis[1,4]-benzodioxan-6,14-imine and 17-acetyl-3-ethoxycarbonyl-6,7,14,15-tetrahydrocycloocta[1,2-g:5,6-g']bis[1,4]benzodioxan-6,14-imine [Example 6] |  |  | 89% | 
mixture of 17-acetyl-6,7,14,15-tetrahydro-2-hydroxymethylcycloocta[1,2-g:5,6-g']bis[1,4]benzodioxan-6,14-imine and 17-acetyl-6,7,14,15-tetrahydro-3-hydroxymethylcycloocta[1,2-g: 5,6-g']bis[1,4]benzodioxan-6,14-imine [Example 7] |  |  | 65% | 
